Experimental data taken from patent US20040254161A1, “New benzothiazine and benzothiadiazine compounds” (priority 2003, published 2004).

Columns and labels:
AMPA receptors = experiment: Excitatory currents induced by AMPA in Xenopus oocytes (two-electrode voltage-clamp); assay type: cell-based; conditions: Xenopus oocytes injected with rat cerebral cortex poly(A+) mRNA; AMPA 10 μM; 20-24° C., OR2 medium
Description: Study of the Excitatory Currents Induced by AMPA in Xenopus oocytes
mRNA's are prepared from cerebral cortex of male Wistar rats by the guanidinium thiocyanate/phenol/chloroform method. The poly (A^+) mRNA's are isolated by chromatography on oligo-dT cellulose and injected at a level of 50 ng per oocyte. The oocytes are incubated for 2 to 3 days at 18° C. to permit expression of the receptors and are then stored at 8-10° C.
Electrophysiological recording is carried out in a Plexiglass® chamber at 20-24° C. in OR2 medium (J. Exp. Zool., 1973, 184, 321-334) by the “voltage-clamp” method using two electrodes, with a third electrode placed in the bath serving as reference.
All the compounds are applied via the incubation medium and the electric current is measured at the end of the application period. AMPA is used in a concentration of 10 μM. For each compound studied, the concentration that doubles (EC2X) or quintuples (EC5X) the intensity of the current induced by AMPA alone (5 to 50 nA) is determined.

SMILES | melting point [°C] | EC2X (concentration that doubles the intensity of the current induced by AMPA alone) (AMPA receptors) [µM] | EC5X (concentration that quintuples the intensity of the current induced by AMPA alone) (AMPA receptors) [µM]
CS(=O)(=O)NCc1cccc(Oc2ccc3c(c2)S(=O)(=O)NC2CCCN32)c1 (stereo not drawn) [Example 2, N-{3-[(5,5-Dioxido-2,3,3a,4-tetrahydro-1H-pyrrolo[2,1-c][1,2,4]-benzothiadiazin-7-yl)oxy]benzyl}methanesulphonamide] | – | 0.35 | 2.6
Cl.NCc1cccc(Oc2ccc3c(c2)S(=O)(=O)NC2CCCN32)c1 (stereo not drawn) [Example 1, {3-[(5,5-Dioxido-2,3,3a,4-tetrahydro-1H-pyrrolo[2,1-c][1,2,4]-benzothiadiazin-7-yl)oxy]phenyl}methanamine hydrochloride] | – | 3.5 | 9.2
CS(=O)(=O)NCc1ccc(Oc2ccc3c(c2)S(=O)(=O)NC2CCCN32)cc1 (stereo not drawn) [Example 21, N-{4-[(5,5-Dioxido-2,3,3a,4-tetrahydro-1H-pyrrolo[2,1-c][1,2,4]-benzothiadiazin-7-yl)oxy]benzyl}methanesulphonamide] | – | 0.1 | 0.56

More lines, main results first:

melting point [°C] | SMILES | EC2X (concentration that doubles the intensity of the current induced by AMPA alone) (AMPA receptors) [µM] | EC5X (concentration that quintuples the intensity of the current induced by AMPA alone) (AMPA receptors) [µM]
58 | CC(=O)NCc1cccc(Oc2ccc3c(c2)S(=O)(=O)NC2CCCN32)c1 (stereo not drawn) [Example 3, N-{3-[(5,5-Dioxido-2,3,3a,4-tetrahydro-1H-pyrrolo[2,1-c][1,2,4]-benzothiadiazin-7-yl)oxy]benzyl}acetamide] | – | –
104 to 113 | O=S1(=O)NC2CCCN2c2ccc(Oc3cccc(CNS(=O)(=O)C(F)(F)F)c3)cc21 (stereo not drawn) [Example 9, N-{3-[(5,5-Dioxido-2,3,3a,4-tetrahydro-1H-pyrrolo[2,1-c][1,2,4]-benzothiadiazin-7-yl)oxy]benzyl}(trifluoro)methanesulphonamide] | – | –
112 to 118 | CC(C)S(=O)(=O)NCc1cccc(Oc2ccc3c(c2)S(=O)(=O)NC2CCCN32)c1 (stereo not drawn) [Example 18, N-{3-[(5,5-Dioxido-2,3,3a,4-tetrahydro-1H-pyrrolo[2,1-c][1,2,4]-benzothiadiazin-7-yl)oxy]benzyl}propane-2-sulphonamide] | – | –
